“Also recorded” adds a separate entry of the source.
What was measured:
[1] = tested on: amiloride-insensitive salt taste receptor; test: Rat chorda tympani (CT) taste nerve recordings; format: in vivo; settings: for effect on NaCl chorda tympani response: no Bz; for effect on RTX-enhanced NaCl chorda tympani response: 100 mM NaCl+5 μM benzamil+0.75 μM RTX, capsazepine 0-500 μM
Excerpt: Chorda tympani nerve recordings. Recordings from the chorda tympani (CT) taste nerves of anesthetized rats were made. Recordings were made with various salt stimuli and with the taste receptive field under current or voltage clamp in order to observe the effect, if any, of modulating the driving force for ions through putative […] apical membrane ion channels involved in salt taste reception.

[2] = tested on: amiloride-insensitive salt taste receptor; test: Chorda tympani responses in wildtype C57BL/6J mice; format: in vivo, mouse
[3] = tested on: amiloride-insensitive salt taste receptor
[4] = tested on: polarized rat fungiform taste receptor cells; test: [Na+]i measurement (Na-green F490) in polarized taste receptor cells, unilateral apical Na+ flux; format: cell-based
Excerpt: [Na^+]i measurement in polarized taste receptor cells. A small piece of the anterior lingual epithelium containing a single fungiform papilla was mounted in a special microscopy chamber (Lyall et al., 2002, supra). Relative changes in intracellular sodium activity ([Na^+]i) were monitored in polarized taste receptor cells with the sodium sensitive fluoroprobe sodium-green. The taste receptor cells in the taste bud were visualized from the basolateral side through a 40× objective using a fluorescence microscope.

[5] = fixed RTX concentration (0.75 μM), 100 mM NaCl+5 μM Bz

In the case of `Nc1ncnc2c1ncn2[C@@H]1O[C@H](COP(=O)(O)OP(=O)(O)OP(=O)(O)O)[C@@H](O)[C@H]1O` [ATP, Adenosine 5′-triphosphate], the “effect on chorda tympani response compared to 100 mM NaCl+5 μM benzamil+100 μM evodiamine” value ([1]; 100 μM evodiamine+500 μM ATP, 100 mM NaCl+5 μM benzamil) is reported as “further enhancement” and the “effect on the temperature threshold of the Bz-insensitive NaCl chorda tympani response” value ([1]; ATP 500 μM alone) is reported as “no effect”.
With `COc1cc(CNC(=S)CC(COC(=O)C(C)(C)C)Cc2ccc(C)c(C)c2)ccc1O` (centres unmarked) [Agonist 23, 2-(3,4-dimethylbenzyl)-3-{[(4-hydroxy-3-methoxybenzyl)amino]carbothioyl}propyl pivalate] the “effect on CT response at higher concentrations” value ([1]; 100 mM NaCl+5 μM benzamil) was “decrease”, the “effect on CT response at low concentration” value ([1]; 100 mM NaCl+5 μM benzamil) was “enhances” and the “temperature dependence of effectiveness” value ([1]; 41° versus 23°) was “more effective at 41°”.
With `NC(=NCc1ccccc1)NC(=O)c1nc(Cl)c(N)nc1N` [Bz, benzamil] the “part of the NaCl chorda tympani response that was Bz-insensitive” value ([2]; wildtype mice, 23°, 100 mM NaCl+5 μM Bz) was “about 25%”.
In the case of `C=C(C)[C@]12C[C@@H](C)[C@@]34O[C@](Cc5ccccc5)(O[C@@H]1[C@@H]3C=C(COC(=O)Cc1ccc(O)c(OC)c1)C[C@]1(O)C(=O)C(C)=C[C@@H]41)O2` [RTX, resiniferatoxin], the “effect on Bz-insensitive NaCl chorda tympani response” value ([2]; wildtype mice, 23°, 100 mM NaCl+5 μM Bz+0.75 μM RTX) is reported as “enhanced”, the “response to RTX at 42°” value ([2]; wildtype mice, 42°, 100 mM NaCl+5 μM Bz+0.75 μM RTX) is reported as “significantly enhanced relative to 23°” and the “effect on response to NaCl+Bz” value ([3]; VR1 knockout mice, 0.75 μM RTX, 23° and 42°) is reported as “No effects”. The CT response profile ([1]; 10 mM KCl+0.5 μM RTX at 23°, no ethanol) was “only a transient phasic response”, the “effect of RTX on the CT response to ethanol” value ([1]; 10 mM KCl+40% ETH+0.5 μM RTX, 23° and 42°) was “enhanced the response” and the “effect on temperature threshold of the KCl CT response” value ([1]; 10 mM KCl+60% ETH+0.5 μM RTX) was “without affecting the temperature threshold”. The “effect on NaCl chorda tympani response” value ([1]; 100 mM NaCl+1 μM RTX) was “reversibly increased”, the “concentration at which enhancement of the Bz-insensitive NaCl chorda tympani response begins” value ([1]; 100 mM NaCl+5 μM Bz) was 0.1 µM and the “concentration at which the Bz-insensitive NaCl chorda tympani response decreased to rinse level (eliminated)” value ([1]; 100 mM NaCl+5 μM Bz) was “around 10 μM”. The “concentration at which the NaCl response returned to control level” value ([1]; 100 mM NaCl+5 μM Bz) was “around 3 μM”, the “concentration of maximum enhancement of the Bz-insensitive NaCl chorda tympani response” value ([1]; 100 mM NaCl+5 μM Bz) was 1 µM and the “rank order potency on the Bz-insensitive NaCl chorda tympani response” value ([1]; 100 mM NaCl+5 μM Bz) was “RTX>CAP>CPC”. The “pH of greatest RTX-induced increase in the Bz-insensitive NaCl chorda tympani response” value ([1]; 100 mM NaCl+5 μM Bz+0.5 μM RTX, pHo 2-10) was 6, the “effect on Bz-insensitive NaCl chorda tympani response” value ([1]; 100 mM NaCl+5 μM Bz+1 μM RTX) was “same magnitude of enhancement” and the “effect on NaCl chorda tympani response” value ([1]; 100 mM NaCl+10 μM RTX) was “reversibly decreased”. The “effect on Bz-insensitive NaCl chorda tympani response” value ([1]; NaCl+5 μM Bz+10 μM RTX) was “reduced the response (j-k) to rinse level” and the “effect on the CT responses to sucrose, quinine or H+ ions” value ([1]; rat, in vivo) was “no effect”.
`COc1cccc(NC(=O)C=Cc2ccc(Cl)cc2)c1` [SB-366791, N-(3-methoxyphenol)-4-chlorocinnamide] was tested, and the “increase in F490 on increase of apical Na+ concentration” value ([4]; 150 mM NaCl+) was “completely inhibited; also recorded: no increase”, the “increase in F490 above baseline with ethanol” value ([4]; 150 mM NaCl++40% ETH) was “no further increase” and the “effect on Bz-insensitive NaCl chorda tympani response at 23° and elevated temperatures” value ([1]; 1 μM SB-366791, 100 mM NaCl+5 μM Bz) was “completely blocked”. The “effect on CT response to RTX+ETH” value ([1]; RTX+ETH+0.1 μM SB-366791, 23° and 42°) was “completely inhibited the tonic component” and the “effect on transient phasic responses to ethanol” value ([1]; ethanol solutions containing 0.1 mM SB-366791) was “did not affect”.
`COc1cc(CNC(=O)CCCC/C=C/C(C)C)ccc1O` [capsaicin] was tested, and the “chorda tympani response to KCl and NH4Cl at high capsaicin” value ([1]; 100 mM KCl, 100 mM NH4Cl, 200 μM capsaicin) was “a residual response remained”, the “concentration at which the Bz-insensitive NaCl chorda tympani response decreased to rinse level (eliminated)” value ([1]; 100 mM NaCl+5 μM Bz) was 200 µM and the “concentration of maximum enhancement of the Bz-insensitive NaCl chorda tympani response” value ([1]; 100 mM NaCl+5 μM Bz) was 40 µM. For the same molecule, the “rank order potency on the Bz-insensitive NaCl chorda tympani response” value ([1]; 100 mM NaCl+5 μM Bz) was “RTX>CAP>CPC” and the “concentration of maximum enhancement of the Bz-insensitive NaCl chorda tympani response” value ([1]; 100 mM NaCl+5 μM Bz, listed as CAP) was “around 40 μM”.
For `Oc1cc2c(cc1O)CN(C(=S)NCCc1ccc(Cl)cc1)CCC2` [capsazepine], the “increase in F490 relative to 150 mM NaCl+5 mM Bz+40% ETH” value ([4]; 150 mM NaCl+5 mM Bz+40% ETH+100 mM CZP) was “significantly smaller increase”, the “effect on RTX-enhanced NaCl chorda tympani response” value [1] was “monotonically reduced” and the “effect on RTX-enhanced NaCl chorda tympani response” value ([1]; listed as CZP) was “dose-dependent inhibition”. For the same molecule, the “effect on RTX concentration response curve of the Bz-insensitive NaCl chorda tympani response” value ([1]; CZP 10 μM, RTX 0-10 μM) was “shifted the RTX concentration response curve to the right”, the “CZP concentration at which chorda tympani responses decreased to the level with NaCl alone” value [1, 5] was 100 µM and the “CZP concentration at which the chorda tympani response was below the level with NaCl alone” value [1, 5] was at least 250 µM.
In the case of `CCO` [ethanol], the “CT response relative to 10 mM KCl” value ([2]; WT mice, 10 mM KCl+60% ETH) is reported as “greater CT response”, the “effect on Bz-insensitive NaCl CT response” value ([2]; WT mice, 100 mM NaCl+5 μM Bz+60% ETH) is reported as “inhibited the CT response” and the “increase in F490 relative to zero ethanol” value ([4]; 150 NaCl+5 mM Bz+10% ethanol) is reported as “bigger increase”. The “increase in F490 relative to 10% ethanol” value ([4]; 150 NaCl+5 mM Bz+40% ethanol) was “further increase”, the “change in F490 relative to zero ethanol” value ([4]; Na+-free Ringer's solution, 10% or 40% ethanol) was “no changes” and the “CT response to R+60% ETH” value ([3]; VR1 KO mice, 10 mM KCl+60% ETH) was “no CT response”. The “effect on the NaCl CT response or the Bz-insensitive NaCl CT response” value ([3]; VR1 KO mice, 60% ETH) was “no effect”, the “effect on CT response in the presence of RTX” value ([1]; 10 mM KCl+0.5 μM RTX, 40% ETH or 60% ETH, 23°) was “increased the CT response in a dose dependent manner” and the CT response profile ([1]; 10 mM KCl+20% ETH at 42°) was “phasic response followed by a sustained tonic phase”. For the same molecule, the “enhancement of the magnitude of the tonic component at 42° relative to 23°” value ([1]; 10 mM KCl+20% ETH+0.5 μM RTX) was 50%, the CT response profile ([1]; 10 mM KCl+20% ETH+0.5 μM RTX at 23°) was “both a phasic component and a sustained tonic component” and the CT response profile ([1]; 10 mM KCl+20% ETH, 23°) was “only a transient phasic response”. The CT response profile ([1]; 10 mM KCl+20% ETH, 23°, listed as ETH) was “did not increase the CT response above baseline”, the CT response profile ([1]; 10 mM KCl+30% ETH) was “only a transient phasic response” and the “magnitude of CT response at 42° relative to 23°” value ([1]; 10 mM KCl+40% ETH) was “enhanced”. For the same molecule, the CT response profile ([1]; 10 mM KCl+40% ETH, 23°, listed as ETH) was “transient phasic response that was followed by a sustained tonic response; also recorded: both a phasic and a tonic component”, the CT response profile ([1]; 10 mM KCl+50% ETH and 10 mM KCl+60% ETH) was “both phasic and tonic components” and the “temperature producing a sharp increase in the KCl CT response” value ([1]; 10 mM KCl+60% ETH) was 380. The “temperature of maximum enhancement of the KCl CT response” value ([1]; 10 mM KCl+60% ETH, 23° to 55.5°) was 41 °, the “effect on magnitude of the Bz-insensitive NaCl CT response” value ([1]; 100 mM NaCl+5 mM Bz+60% ethanol) was “decreased” and the “effect on magnitude of the Bz-insensitive NaCl CT response” value ([1]; 100 mM NaCl+5 mM Bz+ETH, 20% to 40% ethanol) was “dose-dependent increase”. The “effect of 42° on CT response to ethanol relative to 23°” value ([1]; 80% ethanol, H2O rinse) was “no effect”, the “ethanol concentration that inhibited CT responses” value ([1]; KCl and NaCl) was over 60% and the “CT response to ethanol alone” value ([1]; ethanol 40%-100% in distilled H2O, 23°) was “only a transient phasic component”.
For Evodiamine, the “effect on chorda tympani response in rinse solution” value ([1]; 100 μM evodiamine in 10 mM KCl) was “no effect”, the “concentration at which enhancement of the Bz-insensitive NaCl chorda tympani response begins” value ([1]; 100 mM NaCl+5 μM Bz) was 30 µM and the “concentration of maximum enhancement of the Bz-insensitive NaCl chorda tympani response” value ([1]; 100 mM NaCl+5 μM Bz) was 300 µM. For the same molecule, the “concentration at which the response is the same as the control response” value ([1]; 100 mM NaCl+5 μM benzamil) was 3 mM and the “effect on chorda tympani response at concentrations higher than 3 mM” value ([1]; 100 mM NaCl+5 μM benzamil) was “inhibited”.
